Reference: patent US11352340B2, “Pyridine and pyridimine compounds as PI3K-gamma inhibitors” (Incyte Corporation, priority 2016, dated 2022)
Where a name gives a salt, the structure may show the parent alone. Read-outs that look alike come from different tables or passages of the source.

Key:
[1] = target: PI3Kδ (p110δ/p85α) Recombinant Human Protein (Homo sapiens (Human), UniProt O00329); assay: PI3Kδ Scintillation Proximity Assay; assay type: biochemical; conditions: read-out: PI3K-delta SPA IC50
PI3Kδ (p110δ/p85α) Recombinant Human Protein, sequence (O00329 whole entry): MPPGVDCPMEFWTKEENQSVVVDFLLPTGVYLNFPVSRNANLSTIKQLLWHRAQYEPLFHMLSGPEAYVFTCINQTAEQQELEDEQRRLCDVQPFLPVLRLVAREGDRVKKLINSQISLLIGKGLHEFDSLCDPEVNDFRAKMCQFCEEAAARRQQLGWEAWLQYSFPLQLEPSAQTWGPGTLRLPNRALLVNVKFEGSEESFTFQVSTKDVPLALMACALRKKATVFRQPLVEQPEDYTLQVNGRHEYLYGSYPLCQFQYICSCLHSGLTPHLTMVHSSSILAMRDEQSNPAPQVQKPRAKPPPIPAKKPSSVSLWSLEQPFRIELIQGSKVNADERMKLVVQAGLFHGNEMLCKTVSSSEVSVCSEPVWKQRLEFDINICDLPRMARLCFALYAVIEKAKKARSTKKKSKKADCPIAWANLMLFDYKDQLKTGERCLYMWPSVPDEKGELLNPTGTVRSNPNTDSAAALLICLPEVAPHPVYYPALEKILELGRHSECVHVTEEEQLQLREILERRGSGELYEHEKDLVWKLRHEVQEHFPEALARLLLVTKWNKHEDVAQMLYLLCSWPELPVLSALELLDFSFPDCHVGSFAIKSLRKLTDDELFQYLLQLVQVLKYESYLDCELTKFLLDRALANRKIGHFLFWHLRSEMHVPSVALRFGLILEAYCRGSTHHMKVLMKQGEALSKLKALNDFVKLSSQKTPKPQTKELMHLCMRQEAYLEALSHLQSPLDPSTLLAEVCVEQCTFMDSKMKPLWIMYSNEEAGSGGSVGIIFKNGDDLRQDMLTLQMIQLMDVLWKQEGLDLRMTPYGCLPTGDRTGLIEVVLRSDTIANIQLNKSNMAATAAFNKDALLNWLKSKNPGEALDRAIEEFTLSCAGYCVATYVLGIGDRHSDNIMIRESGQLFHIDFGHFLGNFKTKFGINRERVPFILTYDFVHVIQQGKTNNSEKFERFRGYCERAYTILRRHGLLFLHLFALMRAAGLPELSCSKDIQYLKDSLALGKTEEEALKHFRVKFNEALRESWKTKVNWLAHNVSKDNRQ
PI3Kδ (p110δ/p85α) Recombinant Human Protein, sequence (P27986 whole entry partner): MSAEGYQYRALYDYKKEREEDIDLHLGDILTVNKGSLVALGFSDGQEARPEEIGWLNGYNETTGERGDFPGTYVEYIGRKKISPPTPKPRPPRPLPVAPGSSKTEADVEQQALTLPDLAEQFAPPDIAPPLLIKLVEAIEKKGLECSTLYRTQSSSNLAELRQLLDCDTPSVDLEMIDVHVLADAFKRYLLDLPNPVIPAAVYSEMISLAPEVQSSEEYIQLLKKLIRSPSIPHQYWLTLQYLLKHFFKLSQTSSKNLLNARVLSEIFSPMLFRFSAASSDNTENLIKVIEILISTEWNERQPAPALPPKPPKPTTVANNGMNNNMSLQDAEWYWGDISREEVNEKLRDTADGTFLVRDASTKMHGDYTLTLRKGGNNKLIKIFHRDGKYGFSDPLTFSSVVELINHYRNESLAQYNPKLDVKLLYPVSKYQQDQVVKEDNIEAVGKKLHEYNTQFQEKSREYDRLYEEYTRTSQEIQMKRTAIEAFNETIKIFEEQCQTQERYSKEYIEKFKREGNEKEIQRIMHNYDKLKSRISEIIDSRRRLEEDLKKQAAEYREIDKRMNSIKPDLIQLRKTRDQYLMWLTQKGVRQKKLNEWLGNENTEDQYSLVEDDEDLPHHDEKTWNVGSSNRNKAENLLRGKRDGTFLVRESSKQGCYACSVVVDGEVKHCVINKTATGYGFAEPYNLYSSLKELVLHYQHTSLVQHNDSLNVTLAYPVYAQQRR
Outline: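 Kinase reaction run at room temperature in 20 mM MOPS pH 6.7, 10 mM MgCl2, 5 mM DTT, 0.03% CHAPS with 20 μM PIP2, 2 μM ATP plus [γ-33P]ATP, 3.4 nM enzyme, 2% DMSO; 120 min. Quenched with WGA SPA beads/EDTA, counted by scintillation; IC50 from % solvent-control activity vs log concentration.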

[2] = target: PI3Kγ (p110γ) Recombinant Human Protein (Homo sapiens (Human), UniProt P48736); assay: PI3K-γ Scintillation Proximity Assay; assay type: biochemical; conditions: read-out: PI3K-gamma SPA IC50
PI3Kγ (p110γ) Recombinant Human Protein, sequence (P48736 whole entry): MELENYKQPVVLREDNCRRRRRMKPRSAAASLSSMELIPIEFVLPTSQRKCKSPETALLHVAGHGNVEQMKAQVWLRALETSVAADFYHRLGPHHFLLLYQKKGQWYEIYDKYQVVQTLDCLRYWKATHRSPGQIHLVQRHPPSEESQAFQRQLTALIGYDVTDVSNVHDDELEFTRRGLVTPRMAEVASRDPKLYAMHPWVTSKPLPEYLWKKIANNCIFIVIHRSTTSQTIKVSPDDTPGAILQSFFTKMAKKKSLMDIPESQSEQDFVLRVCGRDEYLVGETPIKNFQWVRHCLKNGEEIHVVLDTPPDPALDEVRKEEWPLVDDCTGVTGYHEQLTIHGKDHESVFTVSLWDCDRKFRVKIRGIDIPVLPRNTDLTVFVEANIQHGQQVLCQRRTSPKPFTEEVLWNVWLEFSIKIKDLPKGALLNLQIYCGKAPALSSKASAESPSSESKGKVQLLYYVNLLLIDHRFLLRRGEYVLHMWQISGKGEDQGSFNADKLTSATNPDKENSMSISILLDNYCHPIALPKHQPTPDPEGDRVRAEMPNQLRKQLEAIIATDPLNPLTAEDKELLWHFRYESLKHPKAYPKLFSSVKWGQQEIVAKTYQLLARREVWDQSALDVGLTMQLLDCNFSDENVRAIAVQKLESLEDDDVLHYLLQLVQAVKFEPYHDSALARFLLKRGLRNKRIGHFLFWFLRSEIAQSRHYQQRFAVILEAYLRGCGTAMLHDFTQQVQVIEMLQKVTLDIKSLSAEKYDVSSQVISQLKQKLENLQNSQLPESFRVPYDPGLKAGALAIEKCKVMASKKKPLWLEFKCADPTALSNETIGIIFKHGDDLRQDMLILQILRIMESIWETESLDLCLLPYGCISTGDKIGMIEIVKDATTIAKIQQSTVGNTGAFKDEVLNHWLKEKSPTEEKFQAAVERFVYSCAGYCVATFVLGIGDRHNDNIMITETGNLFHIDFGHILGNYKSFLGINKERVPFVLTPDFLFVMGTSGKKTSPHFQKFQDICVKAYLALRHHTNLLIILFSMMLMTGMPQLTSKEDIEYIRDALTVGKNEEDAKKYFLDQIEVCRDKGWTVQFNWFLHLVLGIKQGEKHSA
Outline: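 Recombinant human p110γ (13 nM) with 20 μM PIP2 and 2 μM ATP plus 0.5 μCi [γ-33P]ATP in 20 mM MOPS pH 6.7, 10 mM MgCl2, 5 mM DTT, 0.03% CHAPS, 2% DMSO, 120 min at room temperature. Product captured on WGA SPA beads and counted; IC50 fitted from % of solvent control versus log concentration.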

[3] = system: Phosphorylated Ribosomal Protein S6 (RPS6) in THP-1 cells; assay: THP-1 RPS6 ELISA Assay; assay type: cell-based, Human; conditions: MCP-1 stimulated, phospho-RPS6 ELISA, read-out: THP p-RPS6 ELISA IC50
Outline: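 Serum-starved THP-1 cells (2×10^5/well, RPMI) preincubated with compound 2 h at 37° C, then stimulated with 10 nM MCP-1 for 15 min. Lysates assayed by phospho-RPS6 ELISA, absorbance 450 nm (540 nm correction); IC50 from percent inhibition versus log concentration.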

SMILES	IC50 [1]	IC50 [2]	IC50 ([3]; Homo sapiens)	IC50 [3]
Cc1[nH]c(-c2cc(-c3cncc(N4CCOCC4)c3)ccn2)nc1C(=O)N1CC(NC(=O)OC(C)(C)C)C1 [Example 264, tert-Butyl (1-{[5-methyl-2-(5-morpholin-4-yl-3,4′-bipyridin-2′-yl)-1H-imidazol-4-yl]carbonyl}azetidin-3-yl)carbamate]	≤ 50 nM	≤ 100 nM	1000 to 5000 nM	
Cc1nc(-c2cc(C3=CCCN(S(=O)(=O)c4ccccc4)C3)ccn2)[nH]c1C [Example 214, 2′-(4,5-Dimethyl-1H-imidazol-2-yl)-1-(phenylsulfonyl)-1,2,5,6-tetrahydro-3,4′-bipyridine Trifluoroacetate Salt]	≤ 500 nM	≤ 50 nM	> 5000 nM	
Cc1[nH]c(-c2cc(-c3cncc(N4CCOCC4)c3)ccn2)nc1C(=O)NC1CCOCC1 [Example 269, 5-Methyl-2-(5-morpholin-4-yl-3,4′-bipyridin-2′-yl)-N-(tetrahydro-2H-pyran-4-yl)-1H-imidazole-4-carboxamide trifluoroacetate salt]	≤ 50 nM	≤ 50 nM	300 to 1000 nM	
Cc1[nH]c(-c2cc(-c3cncc(N4CCOCC4)c3)ccn2)nc1CCO [Example 123, 2-[5-Methyl-2-(5-morpholin-4-yl-3,4′-bipyridin-2′-yl)-1H-imidazol-4-yl]ethanol]	≤ 50 nM	≤ 50 nM	≤ 300 nM	
Cc1cnc(-c2cc(-c3cncc(S(=O)(=O)N[C@H]4CC[C@](C)(O)CC4)c3)ccn2)[nH]1 [Example 298, N-((1r,4r)-4-Hydroxy-4-methylcyclohexyl)-2′-(4-methyl-1H-imidazol-2-yl)-[3,4′-bipyridine]-5-sulfonamide Trifluoroacetate Salt]	≤ 50 nM	≤ 50 nM	≤ 300 nM	
COC(=O)c1nc(-c2cc(-c3cncc(N4CCOCC4)c3)ccn2)[nH]c1C [Example 125, Methyl 5-methyl-2-(5-morpholin-4-yl-3,4′-bipyridin-2′-yl)-1H-imidazole-4-carboxylate]	≤ 50 nM	≤ 100 nM	300 to 1000 nM	
Cc1nc(-c2cc(-c3cncc(Nc4ccccc4)c3)ccn2)[nH]c1C [Example 233, 2′-(4,5-Dimethyl-1H-imidazol-2-yl)-N-phenyl-3,4′-bipyridin-5-amine]	≤ 500 nM	≤ 50 nM	1000 to 5000 nM	
Cc1[nH]c(-c2cc(-c3cncc(S(C)(=O)=O)c3)ccn2)nc1C(=O)N1CC(O)C1 [Example 247, l-({5-Methyl-2-[5-(methylsulfonyl)-3,4′-bipyridin-2′-yl]-1H-imidazol-4-yl}carbonyl)azetidin-3-ol]	≤ 50 nM	≤ 50 nM		> 5000 nM
CCS(=O)(=O)Nc1cncc(-c2ccnc(-c3ncc(-c4ccccc4)[nH]3)c2)c1 [Example 130, N-[2′-(5-Phenyl-1H-imidazol-2-yl)-3,4′-bipyridin-5-yl]ethanesulfonamide Trifluoroacetate Salt]	≤ 50 nM	≤ 50 nM	300 to 1000 nM	
Cc1nc(-c2cc(-c3cncc(C(=O)N4C5CCC4CC5)c3)ccn2)[nH]c1C [Example 179, 5-(7-Azabicyclo[2.2.1]hept-7-ylcarbonyl)-2′-(4,5-dimethyl-1H-imidazol-2-yl)-3,4′-bipyridine trifluoroacetate salt]	≤ 100 nM	≤ 50 nM	≤ 300 nM	
Cc1[nH]c(-c2cc(-c3cncc(S(C)(=O)=O)c3)ccn2)nc1C(N)=O [Example 249, 5-Methyl-2-[5-(methylsulfonyl)-3,4′-bipyridin-2′-yl]-1H-imidazole-4-carboxamide trifluoroacetate salt]	≤ 50 nM	≤ 50 nM	1000 to 5000 nM	
CCCCCNc1ncc(-c2cc(-c3cncc(OC)c3)ccn2)[nH]1 [Example 63, 5-(5-Methoxy-3,4′-bipyridin-2′-yl)-N-pentyl-1H-imidazol-2-amine trifluoroacetate salt]	> 500 nM	≤ 500 nM	> 5000 nM	

Results, then the molecule that gave them:

IC50 [1]	IC50 [2]	IC50 ([3]; Homo sapiens)	IC50 [3]	SMILES
≤ 50 nM	≤ 100 nM	300 to 1000 nM		CCOC(=O)c1nc(-c2cc(-c3cncc(S(C)(=O)=O)c3)ccn2)[nH]c1C [Example 241, Ethyl 5-methyl-2-[5-(methylsulfonyl)-3,4′-bipyridin-2′-yl]-1H-imidazole-4-carboxylate]
≤ 50 nM	≤ 50 nM	300 to 1000 nM		Cc1[nH]c(-c2cc(-c3cncc(N4CCOCC4)c3)ccn2)nc1C(=O)N[C@H]1CCOC1 [Example 271, 5-Methyl-2-(5-morpholin-4-yl-3,4′-bipyridin-2′-yl)-N-[(3S)-tetrahydrofuran-3-yl]-1H-imidazole-4-carboxamide trifluoroacetate salt]
≤ 50 nM	≤ 50 nM		> 5000 nM	Cc1[nH]c(-c2cc(-c3cncc(S(C)(=O)=O)c3)ccn2)nc1C(=O)N1CC[C@@H](O)C1 [Example 245]
≤ 50 nM	≤ 50 nM	300 to 1000 nM		Cc1[nH]c(-c2cc(-c3cncc(N4CCOCC4)c3)ccn2)nc1C(=O)NC1CCCCC1 [Example 265, N-Cyclohexyl-5-methyl-2-(5-morpholin-4-yl-3,4′-bipyridin-2′-yl)-1H-imidazole-4-carboxamide]
≤ 50 nM	≤ 50 nM	≤ 300 nM		COC1CN(C(=O)c2cncc(-c3ccnc(-c4nc(C)c(C)[nH]4)c3)c2)C1 [Example 199, 2′-(4,5-Dimethyl-1H-imidazol-2-yl)-5-[(3-methoxyazetidin-1-yl)carbonyl]-3,4′-bipyridine]
≤ 50 nM	≤ 50 nM	≤ 300 nM		CCNC(=O)c1nc(-c2cc(-c3cncc(S(C)(=O)=O)c3)ccn2)[nH]c1C [Example 252, N-Ethyl-5-methyl-2-[5-(methylsulfonyl)-3,4′-bipyridin-2′-yl]-1H-imidazole-4-carboxamide trifluoroacetate salt]
≤ 50 nM	≤ 50 nM	1000 to 5000 nM		COc1cncc(-c2ccnc(-c3ncc(-c4ccccc4)[nH]3)c2)c1 [Example 19, 5-Methoxy2′-(5-phenyl-1H-imidazol-2-yl)-3,4′-bipyridin trifluoroacetate salt]
≤ 50 nM	≤ 50 nM	≤ 300 nM		Cc1[nH]c(-c2cc(-c3cncc(S(C)(=O)=O)c3)ccn2)nc1C(=O)NC1CCOCC1 [Example 254, 5-Methyl-2-[5-(methylsulfonyl)-3,4′-bipyridin-2′-yl]-N-(tetrahydro-2H-pyran-4-yl)-1H-imidazole-4-carboxamide trifluoroacetate salt]
≤ 50 nM	≤ 50 nM	≤ 300 nM		Cc1nc(-c2cc(-c3cncc(C(=O)N(C)Cc4ccccc4)c3)ccn2)[nH]c1C [Example 193, N-Benzyl-2′-(4,5-dimethyl-1H-imidazol-2-yl)-N-methyl-3,4′-bipyridine-5-carboxamide trifluoroacetate salt]
> 500 nM	≤ 500 nM	> 5000 nM		CNc1nnc(-c2cc(-c3cncc(OC)c3)ccn2)[nH]1 [Example 68, 5-(5-Methoxy-3,4′-bipyridin-2′-yl)-N-methyl-4H-1,2,4-triazol-3-amine trifluoroacetate salt]
≤ 50 nM	≤ 50 nM	≤ 300 nM		Cc1nc(-c2cc(-c3cncc(C(=O)N4CCC4)c3)ccn2)[nH]c1C [Example 191, 5-(Azetidin-1-ylcarbonyl)-2′-(4,5-dimethyl-1H-imidazol-2-yl)-3,4′-bipyridine trifluoroacetate salt]
≤ 50 nM	≤ 50 nM	1000 to 5000 nM		Nc1cncc(-c2ccnc(-c3ncc(-c4ccccc4)[nH]3)c2)c1 [Example 127, 2′-(5-Phenyl-1H-imidazol-2-yl)-3,4′-bipyridin-5-amine Trifluoroacetate Salt]
≤ 100 nM	≤ 50 nM	≤ 300 nM		Cc1nc(-c2cc(-c3cncc(C(=O)N4CC[C@@H](N(C)C)C4)c3)ccn2)[nH]c1C [Example 161, (R)-(2′-(4,5-Dimethyl-1H-imidazol-2-yl)-3,4′-bipyridin-5-yl)(3-(dimethylamino)pyrrolidin-1-yl)methanone trifluoroacetate salt]
> 500 nM	≤ 500 nM	> 5000 nM		COc1cncc(-c2ccnc(-c3cnc(NCC4CCC4)[nH]3)c2)c1 [Example 65, N-(Cyclobutylmethyl)-5-(5-methoxy-3,4′-bipyridin-2′-yl)-1H-imidazol-2-amine trifluoroacetate salt]
≤ 500 nM	≤ 100 nM	1000 to 5000 nM		Cc1nc(-c2cc(-c3cncc(C4CCN(S(C)(=O)=O)C4)c3)ccn2)[nH]c1C (racemic) [Example 240, 2′-(4,5-Dimethyl-1H-imidazol-2-yl)-5-[1-(methylsulfonyl)pyrrolidin-3-yl]-3,4′-bipyridine]
≤ 50 nM	≤ 50 nM	300 to 1000 nM		CC(=O)Nc1cncc(-c2ccnc(-c3ncc(-c4ccccc4)[nH]3)c2)c1 [Example 17, N-(2′-(5-Phenyl-1H-imidazol-2-yl)-3,4′-bipyridin-5-yl)acetamide trifluoroacetate salt]
